In ChEMBL document CHEMBL5352464, “Structure based design and evaluation of benzoheterocycle derivatives as potential dual HIV-1 protease and reverse transcriptase inhibitors” (Eur J Med Chem, 2023):

Key:
[1] = target: Human immunodeficiency virus type 1 protease (Human immunodeficiency virus 1, UniProt Q72874); test: Inhibition of HIV-1 protease expressed in Escherichia coli using Arg-Glu-(EDANS)-Ser-Gln-Asn-Tyr-Pro-Ile-Val-Gln-Lys-([…])-Arg as substrate preincubated with compound for 20 to 30 mins followed by substrate addition and measured after 10 mins by FRET analysis
[2] = system: Human immunodeficiency virus 1; test: Antiviral activity against VSV-G pseudotyped HIV1 NL4-3 infected in HEK293T cells assessed as inhibition of late stage viral replication pre-infected with cells for 5 hrs followed by compound treatment for 48 hrs and further infected with human SupT1 cells for 48 hrs by luciferase based analysis; format: functional, organism-based; details: Human immunodeficiency virus 1, NL4-3, HEK-293T
[3] = Selectivity ratio of EC50 for antiviral activity against DRV-resistant HIV1 mutant to EC50 for antiviral activity against wild-type HIV1 NL4-3 infected in human SUP-T1 cells assessed as inhibition of viral replication; format: functional, Human immunodeficiency virus 1
[4] = system: Human immunodeficiency virus 1; test: microbe, parasite or virus in culture
[5] = system: Human immunodeficiency virus 1; test: microbe, parasite or virus in culture; details: Human immunodeficiency virus 1, NL4-3, SUP-T1, 48 h
Description: Antiviral activity against VSV-G pseudotyped HIV1 NL4-3 infected in human SUP-T1 cells assessed as inhibition of early stage viral replication incubated for 48 hrs by luciferase based analysis

[6] = Selectivity ratio of EC50 for antiviral activity against VSV-G pseudotyped HIV1 NL4-3 infected in human SUP-T1 cells assessed as inhibition of early stage viral replication to EC50 for antiviral activity against VSV-G pseudotyped HIV1 NL4-3 infected in HEK293T cells assessed as inhibition of late stage viral replication; format: functional, Human immunodeficiency virus 1
[7] = target: Human immunodeficiency virus type 1 reverse transcriptase (Human immunodeficiency virus 1, UniProt Q72547); test: Inhibition of HIV-1 NL4-3 reverse transcriptase by RT-PCR analysis
[8] = system: Human immunodeficiency virus 1; test: Antiviral activity against wild-type HIV1 NL4-3 infected in human SUP-T1 cells assessed as inhibition of viral replication pre-infected with compound for 1 day followed by compound washout and replaced with fresh medium for 48 hrs and further infected with human TZM-bl cells by lucifrease based analysis; format: functional, organism-based; details: Human immunodeficiency virus 1, NL4-3, SUP-T1
[9] = target: Human immunodeficiency virus type 1 reverse transcriptase (Human immunodeficiency virus 1) (UniProt Q72547); test: Inhibition of HIV-1 NL4-3 reverse transcriptase at 100 uM by RT-PCR analysis relative to control

Row | SMILES | IC50 [1] [µM] | IC50 [7] [µM] | inhibition [9] [%] | also measured
1 | COc1ccc(S(=O)(=O)N(CC(C)C)C[C@@H](O)[C@H](Cc2ccccc2)NC(=O)c2cc3cc(O)c(O)cc3o2)cn1 | 2.31 | 5.82 | – | EC50 [2]: 4.2 µM; Ratio EC50 [3]: 4.1; EC50 [4]: 17 µM; EC50 [5]: 14.5 µM; Ratio EC50 [6]: 3.45; EC50 [8]: 4.2 µM
2 | COc1ccc(S(=O)(=O)N(CC(C)C)C[C@@H](O)[C@H](Cc2ccccc2)NC(=O)c2cc3cc(O)c(O)cc3[nH]2)cc1 | 1.07 | 96.5 | – | –
3 | COc1ccc(S(=O)(=O)N(CC(C)C)C[C@@H](O)[C@H](Cc2ccccc2)NC(=O)c2cc3ccccc3[nH]2)cc1 | 7.51 | – | < 20 | –
4 | CC(C)CN(C[C@@H](O)[C@H](Cc1ccccc1)NC(=O)c1cc2ccc(O)cc2[nH]1)S(=O)(=O)c1ccc(N)cc1 | 0.55 | 178 | – | –
5 | COc1ccc(S(=O)(=O)N(CC(C)C)C[C@@H](O)[C@H](Cc2ccccc2)NC(=O)c2cc3cc(O)c(O)cc3[nH]2)cn1 | 0.84 | 1.52 | – | EC50 [2]: 0.17 µM; Ratio EC50 [3]: 12.9; EC50 [4]: 2.19 µM; EC50 [5]: 10.5 µM; Ratio EC50 [6]: 61.59; EC50 [8]: 0.17 µM
6 | COc1ccc(S(=O)(=O)N(CC(C)C)C[C@@H](O)[C@H](Cc2ccccc2)NC(=O)c2cc3cc(N)ccc3o2)cc1 | 5.3 | – | < 20 | –
7 | COc1ccc(S(=O)(=O)N(CC(C)C)C[C@@H](O)[C@H](Cc2ccccc2)NC(=O)c2cc3ccccc3o2)cc1 | 9.21 | 65.5 | – | –
8 | O=C1Nc2ccc(Cl)cc2[C@@](C#CC2CC2)(C(F)(F)F)O1 [EFAVIRENZ] | – | – | – | EC50 [2]: > 100 µM
9 | COc1ccc(S(=O)(=O)N(CC(C)C)C[C@@H](O)[C@H](Cc2ccccc2)NC(=O)c2cc3ccc(N)cc3o2)cc1 | 3.73 | – | < 20 | –
10 | COc1ccc(S(=O)(=O)N(CC(C)C)C[C@@H](O)[C@H](Cc2ccccc2)NC(=O)c2cc3ccc(O)cc3o2)cn1 | 2.84 | 223 | – | –
11 | CC(C)CN(C[C@@H](O)[C@H](Cc1ccccc1)NC(=O)c1cc2ccccc2o1)S(=O)(=O)c1ccc(N)cc1 | 16.3 | – | < 20 | –
12 | COc1ccc(S(=O)(=O)N(CC(C)C)C[C@@H](O)[C@H](Cc2ccccc2)NC(=O)c2cc3cc(O)c(O)cc3o2)cc1 | 1.93 | 2.35 | – | EC50 [2]: 4.4 µM; Ratio EC50 [3]: 3.8; EC50 [4]: 16.6 µM; EC50 [5]: 9.33 µM; Ratio EC50 [6]: 2.12; EC50 [8]: 4.4 µM
13 | COc1ccc(S(=O)(=O)N(CC(C)C)C[C@@H](O)[C@H](Cc2ccccc2)NC(=O)c2cc3cc(O)ccc3o2)cc1 | 2.38 | – | < 20 | –
14 | COc1ccc(S(=O)(=O)N(CC(C)C)C[C@@H](O)[C@H](Cc2ccccc2)NC(=O)c2cc3cc(O)ccc3o2)cn1 | 1.98 | 118 | – | –
15 | COc1ccc(S(=O)(=O)N(CC(C)C)C[C@@H](O)[C@H](Cc2ccccc2)NC(=O)c2cc3cc(O)ccc3[nH]2)cn1 | 0.74 | – | < 20 | –
16 | COc1ccc(S(=O)(=O)N(CC(C)C)C[C@@H](O)[C@H](Cc2ccccc2)NC(=O)c2cc3ccc(O)cc3o2)cc1 | 2 | – | < 20 | –
17 | COc1ccc(S(=O)(=O)N(CC(C)C)C[C@@H](O)[C@H](Cc2ccccc2)NC(=O)c2coc3ccc(O)cc23)cc1 | 2.05 | 82.7 | – | –
18 | COc1ccc(S(=O)(=O)N(CC(C)C)C[C@@H](O)[C@H](Cc2ccccc2)NC(=O)c2coc3ccccc23)cc1 | 8.96 | – | < 20 | –
19 | COc1ccc(S(=O)(=O)N(CC(C)C)C[C@@H](O)[C@H](Cc2ccccc2)NC(=O)c2cc3ccc(O)cc3[nH]2)cn1 | 0.46 | – | < 20 | –
20 | COc1ccc(S(=O)(=O)N(CC(C)C)C[C@@H](O)[C@H](Cc2ccccc2)NC(=O)c2cc3cc(O)ccc3[nH]2)cc1 | 0.58 | – | < 20 | –
21 | COc1ccc(S(=O)(=O)N(CC(C)C)C[C@@H](O)[C@H](Cc2ccccc2)NC(=O)c2c[nH]c3ccccc23)cc1 | 12.9 | – | < 20 | –
22 | CC(C)CN(C[C@@H](O)[C@H](Cc1ccccc1)NC(=O)c1cc2ccc(O)cc2o1)S(=O)(=O)c1ccc(N)cc1 | 3.05 | – | < 20 | –
23 | CC(C)CN(C[C@@H](O)[C@H](Cc1ccccc1)NC(=O)O[C@H]1CO[C@H]2OCC[C@H]21)S(=O)(=O)c1ccc(N)cc1 | – | – | – | EC50 [2]: 0.002 µM; EC50 [8]: 0.002 µM
24 | COc1ccc(S(=O)(=O)N(CC(C)C)C[C@@H](O)[C@H](Cc2ccccc2)NC(=O)c2cc3ccc(O)cc3[nH]2)cc1 | 0.5 | 164 | – | –
25 | COc1ccc(S(=O)(=O)N(CC(C)C)C[C@@H](O)[C@H](Cc2ccccc2)NC(=O)c2coc3cc(O)ccc23)cc1 | 1.56 | 60.3 | – | –
26 | CC(C)CN(C[C@@H](O)[C@H](Cc1ccccc1)NC(=O)c1cc2cc(O)ccc2o1)S(=O)(=O)c1ccc(N)cc1 | 4.53 | – | < 20 | –
27 | COc1ccc(S(=O)(=O)N(CC(C)C)C[C@@H](O)[C@H](Cc2ccccc2)NC(=O)c2coc3cc(O)c(O)cc23)cn1 | 1.36 | 7.5 | – | EC50 [2]: 1.76 µM; Ratio EC50 [3]: 1.6; EC50 [4]: 2.83 µM; EC50 [5]: 22.7 µM; Ratio EC50 [6]: 12.88; EC50 [8]: 1.76 µM
28 | CC(C)CN(C[C@@H](O)[C@H](Cc1ccccc1)NC(=O)c1cc2cc(O)ccc2[nH]1)S(=O)(=O)c1ccc(N)cc1 | 0.86 | 102 | – | –
